According to ChEMBL document CHEMBL5108010, “Structure-activity relationship studies on divalent naphthalene diimide G quadruplex ligands with anticancer and antiparasitic activity” (Bioorg Med Chem, 2022):
Where “and” joins values, the source holds several entries; their conditions need not be identical. Identical values can stand only once.

Columns and labels:
[1] = (§1) Cytotoxicity against human MRC5 cells assessed as inhibition of cell proliferation incubated for 72 hrs by alamar blue assay; type: toxicity, cell-based; settings: human, MRC5 cells
[2] = system: HeLa; assay: Cytotoxicity against human HeLa cells assessed as inhibition of cell proliferation incubated for 72 hrs by alamar blue assay; type: functional, cell-based
[3] = system: Trypanosoma brucei; assay: Antitrypanosomal activity against Trypanosoma brucei bloodstream form assessed as inhibition of parasite growth incubated for 72 hrs by alamar blue assay; type: functional, organism-based
[4] = system: Leishmania major; assay: Antileishmanial activity against Leishmania major (MHOM/IL/80/Friedlin) promastigotes assessed as inhibition of parasite growth incubated for 72 hrs by MTT assay; type: functional, organism-based
[5] = Selectivity index, ratio of IC50 for cytotoxicity against human MRC5 cells to IC50 for cytotoxicity against human HeLa cells; type: toxicity, cell-based; settings: for selectivity ratio: MRC5 cells versus HeLa cells, read-out: Ratio IC50
[6] = Selectivity index, ratio of IC50 for cytotoxicity against human MRC5 cells to IC50 for antitrypanosomal activity against Trypanosoma brucei bloodstream form; type: toxicity, cell-based; settings: for selectivity ratio: MRC5 cells versus Trypanosoma brucei bloodstream form, read-out: Ratio IC50
[7] = Selectivity index, ratio of IC50 for cytotoxicity against human MRC5 cells to IC50 for antileishmanial activity against Leishmania major (MHOM/IL/80/Friedlin) promastigotes; type: toxicity, cell-based; settings: read-out: Ratio IC50
[8] = system: Quadruplex DNA; assay: Binding affinity to G-quadruplex telomeric DNA F21T (5'-duplex GGG TTAGGG TTAGGG TTAGGG-3') (unknown origin) assessed as stabilization by measuring change in melting temperature at 10 uM in potassium buffer by FRET melting assay; type: nucleic-acid assay
[9] = system: Quadruplex DNA; assay: Binding affinity to G-quadruplex telomeric DNA F21T (5'-duplex GGG TTAGGG TTAGGG TTAGGG-3') (unknown origin) assessed as stabilization by measuring change in melting temperature at 10 uM in sodium buffer by FRET melting assay; type: nucleic-acid assay
[10] = system: Quadruplex DNA; assay: Binding affinity to G-quadruplex telomeric DNA FMycT (5'-duplex GGG TTAGGG TTAGGG TTAGGG-3') (unknown origin) assessed as stabilization by measuring change in melting temperature at 10 uM in potassium buffer by FRET melting assay; type: nucleic-acid assay
[11] = system: Quadruplex DNA; assay: Binding affinity to Trypanosoma brucei G-quadruplex telomeric DNA FEBR1T (5'-duplex GGG TTAGGG TTAGGG TTAGGG-3') assessed as stabilization by measuring change in melting temperature at 10 uM in potassium buffer by FRET melting assay; type: nucleic-acid assay
[12] = Binding affinity to hairpin duplex DNA F10T (unknown origin) assessed as stabilization by measuring change in melting temperature at 10 uM in potassium buffer by FRET melting assay
[13] = system: Quadruplex DNA; assay: Binding affinity to G-quadruplex telomeric DNA F21T (5'-duplex GGG TTAGGG TTAGGG TTAGGG-3') (unknown origin) assessed as stabilization by measuring change in melting temperature at 1 uM in potassium buffer by FRET melting assay; type: nucleic-acid assay
[14] = system: Quadruplex DNA; assay: Binding affinity to G-quadruplex telomeric DNA F21T (5'-duplex GGG TTAGGG TTAGGG TTAGGG-3') (unknown origin) assessed as stabilization by measuring change in melting temperature at 1 uM in sodium buffer by FRET melting assay; type: nucleic-acid assay
[15] = system: Quadruplex DNA; assay: Binding affinity to G-quadruplex telomeric DNA FMycT (5'-duplex GGG TTAGGG TTAGGG TTAGGG-3') (unknown origin) assessed as stabilization by measuring change in melting temperature at 1 uM in potassium buffer by FRET melting assay; type: nucleic-acid assay
[16] = system: Quadruplex DNA; assay: Binding affinity to Trypanosoma brucei G-quadruplex telomeric DNA FEBR1T (5'-duplex GGG TTAGGG TTAGGG TTAGGG-3') assessed as stabilization by measuring change in melting temperature at 1 uM in potassium buffer by FRET melting assay; type: nucleic-acid assay
[17] = Binding affinity to hairpin duplex DNA F10T (unknown origin) assessed as stabilization by measuring change in melting temperature at 1 uM in potassium buffer by FRET melting assay
[18] = system: MRC5; assay: as §1; type: toxicity, cell-based; settings: mrc5
[19] = Leishmania major, MHOM/IL/80/Friedlin, 72 h

Row | SMILES | IC50 at 72 h [1] [µM] | IC50 ([2]; Homo sapiens, HeLa, 72 h) [µM] | IC50 ([3]; Trypanosoma brucei, 72 h) [µM] | IC50 [4, 19] [µM] | selectivity ratio [5] | selectivity ratio [6] | selectivity ratio [7] | ΔTm [8] | ΔTm [9] | ΔTm [10] | ΔTm [11] [°C] | ΔTm [12] | further results
1 | CN1CCN(c2cccc(N3C(=O)c4ccc5c6c(ccc(c46)C3=O)C(=O)N(c3cccc(N4CCN(C)CC4)c3)C5=O)c2)CC1 | 1.48 | 0.47 | 0.18 | 0.33 | 3.09 | 7.91 | 4.41 | 6.4 °C | 5.8 °C | 8 °C | 4.6 | 0.1 °C | –
2 | O=C1c2ccc3c4c(ccc(c24)C(=O)N1CCCN1CCOCC1)C(=O)N(CCCN1CCOCC1)C3=O | 11.9 | 5.83 | 0.57 | 4.32 | 3.81 | 20.8 | 2.75 | 7 °C | -7 °C | 2 °C | 3.1 | 1 °C | –
3 | C[n+]1cc(N2C(=O)c3ccc4c5c(ccc(c35)C2=O)C(=O)N(c2cc3ccccc3[n+](C)c2)C4=O)cc2ccccc21 | 3.41 | 64.8 | 19.7 | 52.1 | 0.053 | 0.17 | 0.065 | 0.3 °C | 0.4 °C | 1.2 °C | -0.9 | 0.1 °C | –
4 | C[n+]1cccc(N2C(=O)c3ccc4c5c(ccc(c35)C2=O)C(=O)N(c2ccc[n+](C)c2)C4=O)c1 | 18.2 | > 63.9 | 44.1 | > 63.9 | – | 0.41 | < 0.28 | 0.5 °C | 1.3 °C | -1.6 °C | 0.7 | 0 °C | –
5 | CN1CCN(CCN2C(=O)c3ccc4c5c(ccc(c35)C2=O)C(=O)N(CCN2CCN(C)CC2)C4=O)CC1 | 6.78 | 1.06 | 0.48 | 1.68 | 6.4 | 14.2 | 4.04 | 21.5 °C | 11.3 °C | 16 °C | 12 | 2.7 °C | –
6 | CC(CN1C(=O)c2ccc3c4c(ccc(c24)C1=O)C(=O)N(CC(C)N1CCN(C)CC1)C3=O)N1CCN(C)CC1 (stereo unspecified) | 1.4 | 1.68 | 0.17 | 8.08 | 0.83 | 8.2 | 0.17 | 20.5 °C | 9.2 °C | 13.2 °C | 17.5 | 1.7 °C | –
7 | O=C1c2ccc3c4c(ccc(c24)C(=O)N1CC(c1ccccn1)N1CCOCC1)C(=O)N(CC(c1ccccn1)N1CCOCC1)C3=O (stereo unspecified) | 83.1 | 96.9 | 51.7 | > 100 | 0.85 | 1.6 | < 0.83 | 0.1 °C | 0.9 °C | 0.1 °C | 0.7 | 0.3 °C | –
8 | O=C1c2ccc3c4c(ccc(c24)C(=O)N1c1ccccc1N1CCOCC1)C(=O)N(c1ccccc1N1CCOCC1)C3=O | 7.25 | 3.09 | 0.17 | 9.04 | 2.34 | 41.9 | 0.8 | – | – | – | – | – | –
9 | CC(CCN1C(=O)c2ccc3c4c(ccc(c24)C1=O)C(=O)N(CCC(C)N1CCN(C)CC1)C3=O)N1CCN(C)CC1 (stereo unspecified) | 1.24 | 0.35 | 0.13 | 0.24 | 3.54 | 9.5 | 5.17 | 28.5 °C | 18.8 °C | 22 °C | 24.8 | 4.5 °C | –
10 | C[n+]1cccc2c(N3C(=O)c4ccc5c6c(ccc(c46)C3=O)C(=O)N(c3cccc4c3ccc[n+]4C)C5=O)cccc21 | 0.28 | 24.2 | 0.35 | 1.86 | 0.011 | 0.79 | 0.15 | 2 °C | 1.4 °C | 0.6 °C | 3 | 0.5 °C | –
11 | C[n+]1cccc2cc(N3C(=O)c4ccc5c6c(ccc(c46)C3=O)C(=O)N(c3ccc4c(ccc[n+]4C)c3)C5=O)ccc21 | 1.15 | 37 | 3.71 | 16.8 | 0.031 | 0.3 | 0.068 | 4.6 °C | 3.5 °C | 11 °C | 2.5 | 1.4 °C | –
12 | C[n+]1ccc(CN2C(=O)c3ccc4c5c(ccc(c35)C2=O)C(=O)N(Cc2cc[n+](C)cc2)C4=O)cc1 | 0.49 | 14.7 | 0.98 | 1.56 | 0.033 | 0.49 | 0.31 | 13 °C | 4.9 °C | 20.1 °C | 9 | 5 °C | –
13 | CN1CCN(CCCN2C(=O)c3ccc4c5c(ccc(c35)C2=O)C(=O)N(CCCN2CCN(C)CC2)C4=O)CC1 | 3.9 | 0.41 | 0.61 | 0.47 | – | – | – | 20 °C | 2 °C | 13 °C | 11 | 3 °C | –
14 | CN1CCN(CC2(CN3C(=O)c4ccc5c6c(ccc(c46)C3=O)C(=O)N(CC3(CN4CCN(C)CC4)CC3)C5=O)CC2)CC1 | 1.51 | 1.77 | 0.42 | 12.7 | 0.85 | 3.6 | 0.12 | 18.5 °C | 7.7 °C | 15 °C | 15.5 | 0.5 °C | –
15 | CN1CCN(C(C)(C)CN2C(=O)c3ccc4c5c(ccc(c35)C2=O)C(=O)N(CC(C)(C)N2CCN(C)CC2)C4=O)CC1 | 3.38 | 4.47 | 0.96 | 24.6 | 0.76 | 3.5 | 0.14 | 20.7 °C | 10.2 °C | 14.8 °C | 4 | 0.2 °C | –
16 | C[n+]1ccc(-c2c3nc(c(-c4cc[n+](C)cc4)c4ccc([nH]4)c(-c4cc[n+](C)cc4)c4ccc([nH]4)c(-c4cc[n+](C)cc4)c4nc2C=C4)C=C3)cc1 | – | – | – | – | – | – | – | – | – | – | – | – | ΔTm [13]: 28.1 °C; ΔTm [14]: 34.2 °C; ΔTm [15]: 27.5 °C; ΔTm [16]: 28 °C; ΔTm [17]: 7.2 °C
17 | O=C1c2ccc3c4c(ccc(c24)C(=O)N1c1ccc(N2CCOCC2)cc1)C(=O)N(c1ccc(N2CCOCC2)cc1)C3=O | 68.4 | 46.4 | 14 | 45.4 | 1.47 | 4.88 | 1.5 | – | – | – | – | – | –
18 | C[n+]1ccc(N2C(=O)c3ccc4c5c(ccc(c35)C2=O)C(=O)N(c2cc[n+](C)cc2)C4=O)cc1 | > 63.9 | > 63.9 | 48.7 | > 63.9 | – | > 1.31 | – | -0.4 °C | 0 °C | -3.5 °C | -0.5 | -0.2 °C | –
19 | CN1CCN(c2ccccc2N2C(=O)c3ccc4c5c(ccc(c35)C2=O)C(=O)N(c2ccccc2N2CCN(C)CC2)C4=O)CC1 | 1.5 | 1.21 | – | – | 1.23 | – | – | 1.6 °C and 1.9 °C | 1.4 °C and 1.9 °C | 0.9 °C and 2.3 °C | – | 0.1 °C and -0.3 °C | IC50 [18]: 1.23 µM; IC50 ([2]; hela): 0.74 µM; IC50 [3]: 0.048 µM and 0.11 µM; IC50 [4]: 0.79 µM and 3.11 µM; Ratio IC50 [5]: 1.66; Ratio IC50 [6]: 30.69 and 10.53
